According to ChEMBL document CHEMBL4602605, “Fluoroquinolones structural and medicinal developments (2013-2018): Where are we now?” (Bioorg Med Chem, 2019):
In brackets after ≈: the same amount, converted by molar mass.

How the values were obtained:
Type in all cases: functional
Streptococcus pneumoniae = assay: Antibacterial activity against Streptococcus pneumoniae ATCC 49619 incubated for 24 hrs; conditions: ATCC 49619, 24 h
Escherichia coli [1] = assay: Antimicrobial activity against Escherichia coli ATCC 25922 incubated for 24 hrs; conditions: ATCC 25922, 24 h
Staphylococcus aureus [2] = assay: Antimicrobial activity against Staphylococcus aureus ATCC 29213 incubated for 24 hrs; conditions: ATCC 29213, 24 h
Pseudomonas aeruginosa [3] = assay: Antimicrobial activity against Pseudomonas aeruginosa ATCC 27853 incubated for 24 hrs; conditions: ATCC 27853, 24 h
Staphylococcus aureus [4] = assay: Antimicrobial activity against Staphylococcus aureus ATCC 25923 incubated for 18 hrs by CLSI-based microbroth dilution method; conditions: ATCC 25923, 18 h
Pseudomonas aeruginosa [5] = assay: Antimicrobial activity against Pseudomonas aeruginosa ATCC 19429 incubated for 18 hrs by CLSI-based microbroth dilution method; conditions: ATCC 19429, 18 h
Escherichia coli [6] = assay: Antibacterial activity against Escherichia coli incubated for 18 hrs by CLSI-based broth microdilution method
[7] = test system: Staphylococcus epidermidis; assay: Antimicrobial activity against methicillin-susceptible Staphylococcus epidermidis ATCC 12228 incubated for 18 to 24 hrs by two-fold serial dilution method
Staphylococcus aureus [8] = assay: Antimicrobial activity against methicillin-susceptible Staphylococcus aureus ATCC 29213 incubated for 18 to 24 hrs by two-fold serial dilution method
Enterococcus faecium = assay: Antimicrobial activity against Enterococcus faecium ATCC 700221 incubated for 18 to 24 hrs by two-fold serial dilution method
[9] = test system: Mycobacterium tuberculosis; assay: Antimicrobial activity against Mycobacterium tuberculosis H37Rv ATCC 27294 incubated for 7 days by microplate Alamar blue assay; conditions: H37Rv ATCC 27294, 168 h
Staphylococcus aureus [10] = assay: Antimicrobial activity against methicillin-resistant Staphylococcus aureus ATCC 33591 incubated for 18 to 24 hrs by two-fold serial dilution method

Row | SMILES | MIC (Streptococcus pneumoniae) | MIC (Escherichia coli [1]) | MIC (Staphylococcus aureus [2]) | MIC (Pseudomonas aeruginosa [3]) | further results
1 | COc1ccc(/C(CN2CCN(c3cc4c(cc3F)c(=O)c(C(=O)O)cn4C3CC3)CC2)=N\N)cc1 | 12.5 µg/mL (≈ 25.3 µM) | 12.5 µg/mL (≈ 25.3 µM) | 6.25 µg/mL (≈ 12.7 µM) | 100 µg/mL (≈ 203 µM) | –
2 | CCn1cc(C(=O)O)c(=O)c2cc(F)c(N3CCN(C/C(=N\N)c4ccccc4)CC3)cc21 | 50 µg/mL (≈ 111 µM) | 12.5 µg/mL (≈ 27.7 µM) | 25 µg/mL (≈ 55.4 µM) | 100 µg/mL (≈ 221 µM) | –
3 | CCn1cc(C(=O)O)c(=O)c2cc(F)c(N3CCN(C/C(=N/OC)c4ccccc4)CC3)cc21 | > 100 µg/mL | 50 µg/mL (≈ 107 µM) | 50 µg/mL (≈ 107 µM) | > 100 µg/mL | –
4 | CCn1cc(C(=O)O)c(=O)c2cc(F)c(N3CCN(C/C(=N\O)c4ccccc4)CC3)cc21 | 100 µg/mL (≈ 221 µM) | 50 µg/mL (≈ 111 µM) | 50 µg/mL (≈ 111 µM) | 100 µg/mL (≈ 221 µM) | –
5 | CCCCN(CCCC)c1cc2c(cc1F)c(=O)c(C(=O)O)cn2C1CC1 | – | – | – | – | MIC (Staphylococcus aureus [4]): 8 µg/mL (≈ 21.4 µM); MIC (Pseudomonas aeruginosa [5]): > 128 µg/mL; MIC (Escherichia coli [6]): > 128 µg/mL
6 | CCCCCCn1cc(C(=O)O)c(=O)c2cc(F)c(N3CCNCC3)cc21.Cl | – | – | – | – | MIC (Staphylococcus aureus [4]): > 128 µg/mL; MIC (Pseudomonas aeruginosa [5]): > 128 µg/mL; MIC (Escherichia coli [6]): 64 µg/mL
7 | CCn1cc(C(=O)O)c(=O)c2cc(F)c(N3CCN(C/C(=N/NC(N)=O)c4ccc([N+](=O)[O-])cc4)CC3)cc21 | 12.5 µg/mL (≈ 23.2 µM) | 6.25 µg/mL (≈ 11.6 µM) | 6.25 µg/mL (≈ 11.6 µM) | 50 µg/mL (≈ 92.7 µM) | –
8 | COc1ccc(/C(CN2CCN(c3cc4c(cc3F)c(=O)c(C(=O)O)cn4C3CC3)CC2)=N\O)cc1 | 50 µg/mL (≈ 101 µM) | 12.5 µg/mL (≈ 25.3 µM) | 6.25 µg/mL (≈ 12.6 µM) | 100 µg/mL (≈ 202 µM) | –
9 | CCn1cc(C(=O)O)c(=O)c2cc(F)c(N3CCN(C/C(=N/OC)c4ccc([N+](=O)[O-])cc4)CC3)cc21 | 100 µg/mL (≈ 195 µM) | 25 µg/mL (≈ 48.9 µM) | 25 µg/mL (≈ 48.9 µM) | 100 µg/mL (≈ 195 µM) | –
10 | CCn1cc(C(=O)O)c(=O)c2cc(F)c(N3CCN(C/C(=N/NC(N)=O)c4ccccc4)CC3)cc21 | 100 µg/mL (≈ 202 µM) | 25 µg/mL (≈ 50.6 µM) | 12.5 µg/mL (≈ 25.3 µM) | 100 µg/mL (≈ 202 µM) | –
11 | O=C(O)c1cn(C2CC2)c2cc(N3CCCCC3)c(F)cc2c1=O | – | – | – | – | MIC (Staphylococcus aureus [4]): 0.25 µg/mL (≈ 0.757 µM); MIC (Pseudomonas aeruginosa [5]): 32 µg/mL (≈ 96.9 µM)
12 | Cc1ccc(/C(CN2CCN(c3cc4c(cc3F)c(=O)c(C(=O)O)cn4C3CC3)CC2)=N\NC(N)=O)cc1 | 25 µg/mL (≈ 48 µM) | 12.5 µg/mL (≈ 24 µM) | 6.25 µg/mL (≈ 12 µM) | 50 µg/mL (≈ 96 µM) | –
13 | CCn1cc(C(=O)O)c(=O)c2cc(F)c(N3CCN(C/C(=N/O)c4ccc(C)cc4)CC3)cc21 | 100 µg/mL (≈ 214 µM) | 50 µg/mL (≈ 107 µM) | 50 µg/mL (≈ 107 µM) | 100 µg/mL (≈ 214 µM) | –
14 | CCn1cc(C(=O)O)c(=O)c2cc(F)c(N3CCN(C/C(=N/Nc4ccccc4)c4ccc(C)cc4)CC3)cc21 | 100 µg/mL (≈ 185 µM) | 25 µg/mL (≈ 46.2 µM) | 50 µg/mL (≈ 92.3 µM) | > 100 µg/mL | –
15 | CN(C)c1cc2c(cc1F)c(=O)c(C(=O)O)cn2C1CC1 | – | – | – | – | MIC (Staphylococcus aureus [4]): 125 µg/mL (≈ 431 µM); MIC (Pseudomonas aeruginosa [5]): 8 µg/mL (≈ 27.6 µM)
16 | O=C(O)c1cn(C2CC2)c2cc(N3CCOCC3)c(F)cc2c1=O | – | – | – | – | MIC (Staphylococcus aureus [4]): 125 µg/mL (≈ 376 µM); MIC (Pseudomonas aeruginosa [5]): 8 µg/mL (≈ 24.1 µM)

Row | SMILES | MIC (Streptococcus pneumoniae) | MIC (Escherichia coli [1]) | MIC (Staphylococcus aureus [2]) | MIC (Pseudomonas aeruginosa [3]) | further results
17 | CCn1cc(C(=O)O)c(=O)c2cc(F)c(N3CCN(C/C(=N/Nc4ccccc4)c4ccc(OC)cc4)CC3)cc21 | 100 µg/mL (≈ 179 µM) | 25 µg/mL (≈ 44.8 µM) | 25 µg/mL (≈ 44.8 µM) | 100 µg/mL (≈ 179 µM) | –
18 | COc1ccc(/C(CN2CCN(c3cc4c(cc3F)c(=O)c(C(=O)O)cn4C3CC3)CC2)=N/NC(N)=O)cc1 | 12.5 µg/mL (≈ 23.3 µM) | 12.5 µg/mL (≈ 23.3 µM) | 6.25 µg/mL (≈ 11.6 µM) | 50 µg/mL (≈ 93.2 µM) | –
19 | CCn1cc(C(=O)O)c(=O)c2cc(F)c(N3CCN(C/C(=N/OC)c4ccc(OC)cc4)CC3)cc21 | 100 µg/mL (≈ 201 µM) | 50 µg/mL (≈ 101 µM) | 50 µg/mL (≈ 101 µM) | 100 µg/mL (≈ 201 µM) | –
20 | CCn1cc(C(=O)O)c(=O)c2cc(F)c(N3CCN(C/C(=N\Nc4ccccc4)c4ccccc4)CC3)cc21 | 100 µg/mL (≈ 190 µM) | 25 µg/mL (≈ 47.4 µM) | 50 µg/mL (≈ 94.8 µM) | 100 µg/mL (≈ 190 µM) | –
21 | CCn1cc(C(=O)O)c(=O)c2cc(F)c(N3CCN(C/C(=N/N)c4ccc(C)cc4)CC3)cc21 | 25 µg/mL (≈ 53.7 µM) | 25 µg/mL (≈ 53.7 µM) | 12.5 µg/mL (≈ 26.9 µM) | 100 µg/mL (≈ 215 µM) | –
22 | CCn1cc(C(=O)O)c(=O)c2cc(F)c(N3CCN(C/C(=N/OC)c4ccc(C)cc4)CC3)cc21 | 100 µg/mL (≈ 208 µM) | 25 µg/mL (≈ 52 µM) | 25 µg/mL (≈ 52 µM) | > 100 µg/mL | –
23 | CCn1cc(C(=O)O)c(=O)c2cc(F)c(N3CCN(C/C(=N/O)c4ccc([N+](=O)[O-])cc4)CC3)cc21 | 50 µg/mL (≈ 101 µM) | 12.5 µg/mL (≈ 25.1 µM) | 6.25 µg/mL (≈ 12.6 µM) | 100 µg/mL (≈ 201 µM) | –
24 | COc1c(N2CCN(C/C(C)=N/NC(=O)c3ccc(O)cc3)CC2)c(F)cc2c(=O)c(C(=O)O)cn(C3CC3)c12 | – | – | – | – | MIC [7]: 0.06 µg/mL (≈ 0.109 µM); MIC (Staphylococcus aureus [8]): 0.125 µg/mL (≈ 0.227 µM); MIC (Enterococcus faecium): 64 µg/mL (≈ 116 µM); MIC [9]: 0.21 µM (≈ 0.116 µg/mL); MIC (Staphylococcus aureus [10]): 0.06 µg/mL (≈ 0.109 µM)
25 | O=C(O)c1cn(C2CC2)c2cc(N3CCCC3)c(F)cc2c1=O | – | – | – | – | MIC (Staphylococcus aureus [4]): 0.0625 µg/mL (≈ 0.198 µM); MIC (Pseudomonas aeruginosa [5]): > 128 µg/mL
26 | COc1c(N2CCN(CCn3c([N+](=O)[O-])cnc3C)CC2)c(F)cc2c(=O)c(C(=O)O)cn(C3CC3)c12 | – | – | – | – | MIC [7]: 1 µg/mL (≈ 1.94 µM); MIC (Staphylococcus aureus [8]): 1 µg/mL (≈ 1.94 µM); MIC (Enterococcus faecium): > 128 µg/mL; MIC [9]: 1.72 µM (≈ 0.885 µg/mL); MIC (Staphylococcus aureus [10]): 1 µg/mL (≈ 1.94 µM)
27 | CCn1cc(C(=O)O)c(=O)c2cc(F)c(N3CCNCC3)cc21.Cl | – | – | – | – | MIC (Staphylococcus aureus [4]): 2 µg/mL; MIC (Pseudomonas aeruginosa [5]): 1 µg/mL
28 | COc1c(N2CCN(C/C(C)=N/Nc3nc4ccccc4s3)CC2)c(F)cc2c(=O)c(C(=O)O)cn(C3CC3)c12 | – | – | – | – | MIC [7]: 0.5 µg/mL (≈ 0.886 µM); MIC (Staphylococcus aureus [8]): 0.25 µg/mL (≈ 0.443 µM); MIC (Enterococcus faecium): 64 µg/mL (≈ 113 µM); MIC [9]: 0.313 µM (≈ 0.177 µg/mL); MIC (Staphylococcus aureus [10]): 0.5 µg/mL (≈ 0.886 µM)
29 | CCn1cc(C(=O)O)c(=O)c2cc(F)c(N3CCN(C/C(=N/N)c4ccc([N+](=O)[O-])cc4)CC3)cc21 | 25 µg/mL (≈ 50.4 µM) | 12.5 µg/mL (≈ 25.2 µM) | 12.5 µg/mL (≈ 25.2 µM) | 50 µg/mL (≈ 101 µM) | –
30 | COc1c(N2CCN(C/C(C)=N/Nc3ccccn3)CC2)c(F)cc2c(=O)c(C(=O)O)cn(C3CC3)c12 | – | – | – | – | MIC [7]: 0.125 µg/mL (≈ 0.246 µM); MIC (Staphylococcus aureus [8]): 0.125 µg/mL (≈ 0.246 µM); MIC (Enterococcus faecium): 64 µg/mL (≈ 126 µM); MIC [9]: 0.372 µM (≈ 0.189 µg/mL); MIC (Staphylococcus aureus [10]): 0.125 µg/mL (≈ 0.246 µM)
31 | CCn1cc(C(=O)O)c(=O)c2cc(F)c(N3CCN(C/C(=N\Nc4ccccc4)c4ccc([N+](=O)[O-])cc4)CC3)cc21 | 100 µg/mL (≈ 175 µM) | 50 µg/mL (≈ 87.3 µM) | 50 µg/mL (≈ 87.3 µM) | > 100 µg/mL | –
